Consider 3 substances from US20250250559A1, “METHOD TO ANALYZE AND OPTIMIZE GENE EDITING MODULES AND DELIVERY APPROACHES” (Hoffmann-La Roche Inc., priority 2016, published 2025).

What all share (type): cell-based, human
Data set [1] has as its system MCF-7 cells. Nature of the data set: DT resistant colony count of MCF-7 exposed to SCR7 and/or RS-1 during SpCas9-mediated DPH1 editing. Here is the method: (§1) To evaluate and quantify the influence of DNA repair modulators on efficiency and specificity of gene editing, CRISPR/SpCAS9 and DPH1 targeting 20 mer gRNA was combined with compounds that modulate DNA repair mechanisms. The inhibitor Scr7 was applied either 4 hrs before transfection or 18 hrs after transfection of the gene editing modules until […] after transfection to inhibit DNA ligase IV.
SCR7 (1 μM final conc.) or RS-1 (8 μM final conc.) or SCR7+RS-1 (1 μM+8 μM final conc.) were added to MCF7 cells 4 hrs before transfection of the gene editing modules in the ‘early exposure’ setting. For ‘late exposure’ SCR7 (8 µM final conc.) or RS-1 (1 μM final conc.) were added to MCF7 cells 18 hrs after transfection. In both settings, cells were exposed to the modulators until 96 hr after transfection, i.e. ‘early exposure’ consisted of a treatment for a total of 100 hrs, ‘late exposure’ for a total of 78 hrs.
(§2) The system upon which to determine the effects of DNA repair modulators consisted of the CRISPR/SpCas9 modules with DPH1 20 mer gRNA, transfected into MCF7 cells and subjected to subsequent DT and PM selection as described in the previous Examples. Frequencies of DTr, PMr, and double-resistant colonies were recorded to reflect gene inactivation and cassette integration events.

The next data set concerns MCF7. Nature of the data set: Viability (Promega CTG) assay. The conditions noted are these: 1 μM Scr7, 8 μM RS-1, 1 μM+8 μM combined. Here is the method:
The RAD51-stimulatory compound 1 (RS-1) was applied to modulate homologous recombination (HR) during gene editing. RS-1 (Sigma Aldrich) was dissolved in DMSO to generate a stock solution of 10 mg/ml, which was diluted in RPMI medium just before application to cells.
The DNA ligase IV inhibitor SCR7 was applied to modulate non-homologous end joining (NHEJ) during gene editing. SCR7 (Sigma) was dissolved in DMSO to generate a stock solution of 10 mg/ml, which was diluted in RPMI medium just before application to cells.

Data set [2] concerns MCF-7 cells. Nature of the data set: PM resistant colony count of MCF-7 exposed to SCR7 and/or RS-1 during SpCas9-mediated DPH1 editing. The conditions noted are these: for mean PMr colonies #seeded cells: 80,000: SpCas9 Dph1 gRNA (20 mer). Here is the method: as §1
SCR7 (1 μM final conc.) or RS-1 (8 μM final conc.) or SCR7+RS-1 (1 μM+8 μM final conc.) were added to MCF7 cells 4 hrs before transfection of the gene editing modules in the ‘early exposure’ setting. […]
as §2

The test system of data set [3] is MCF-7 cells. Nature of the data set: DT resistant colony count of MCF-7 exposed to SCR7 and/or RS-1 during SpCas9-mediated DPH1 editing. The following applies: SpCas9 Dph1 gRNA (20 mer); compound added 18 hrs after transfection; RS-1 8 μM, SCR7 1 μM.
Data set [4] relates to DPH2 gene. Nature of the data set: PM resistant colony count after DPH2 gene editing. The conditions noted are these: DPH2 assay (integr. vs. k.o.); for # of PM resistant colonies (40,000 seeded cells): MCF7, individual samples A-D. On the procedure:
(§3) MCF7 cells (Brooks, et al. 1973) were originally obtained from ATCC (subsequently propagated in an in-house cell bank) and maintained in RPMI […] medium supplemented with 10% FCS, 2 mM L-Glutamine and penicillin/streptomycin at 37° C. and 85% humidity. For transfection of plasmids harboring gene-editing modules, 3,000,000 cells were seeded in a 10 cm diameter culture dish and cultivated at 37° C. and humidified 5% CO2. 24 h after seeding, cells were transfected with 20 μg total DNA using JetPEI (Polyplus) according to the manufacturer's protocol but with an N/P ratio of 6:1. Transfection efficiency was determined after 24 h by flow cytometry (FACS Calibur, BD biosciences) of cells that were transfected with a modified eGFP expression plasmid (Zhang, et al. 1996).
(§4) Plasmids encoding CRISPR/Cas9 gene-editing entities (i.e. knock-out and integration systems) against Dph1 (gRNA target sequence: […] (SEQ ID NO: 01) derived from RefSeq: NM_001383) and Dph2 (gRNA target sequence: […] (SEQ ID NO: 02) derived from RefSeq: NM_001039589, NM_001384), and scrambled control (gRNA sequence: […] (SEQ ID NO: 03)) were obtained from OriGene. This system comprises one plasmid expressing a ˜100 nt gRNA under control of a U6 promoter as well as Cas9 nuclease under control of a CMV promoter and a Donor plasmid with a promoter-less GFP/PM expression cassette flanked by homologous arms to the target gene (Dph1 or Dph2). Additional Dph1 gRNA sequence variants of different sizes (OriGene) […]
(§5) MCF7 cells which have all chromosomal copies of DPH1 or DPH2 inactivated are resistant to diphtheria toxin (Stahl, et al. 2015). Thus, occurrence and frequency of toxin resistant cells/colonies upon CRISPR/Cas inflicted gene inactivation provides a measure for efficiency of inactivation of all gene copies. Therefore, MCF/cells were transfected as described in Example 1 with (i) a GFP expression plasmid as transfection control, (ii) the CRISPR/Cas9 Dph1 or Dph2 knock-out/integration system and (iii) knock-out/integration entities containing a scrambled gRNA to determine Cas9 independent integration frequencies. After determination of transfection efficiency, cells were seeded in 6-well plates. For quantification of homozygous knock-out events by DT 20000 cells were seeded and for quantification of integration events by PM or both events 40000 cells were seeded. RPMI medium was exchanged by RPMI medium containing DT or PM or both toxins 3 days after cell seeding. Exchange of medium was repeated every 2-3 days until all dead cells were removed from the plates and actively growing colonies could be detected via microscopic inspection. Thereafter (between day 12 and day 14 after start of toxin exposure), cells were washed 3 times with PBS and subsequently stained with ice cold methylene blue (0.2% in 50% EtOH). Methylene blue solution was subsequently removed and the plates were carefully washed under running water. Finally, cell colonies were counted under the microscope with a 5 mm grid foil.
(§6) CRISPR/Cas module for targeted integration contains a puromycin (PM) resistance gene expression cassette without promoter to avoid transient expression. Thus, detection of integration of recombinant sequences into the genome was detected by determining sensitivity of cells towards PM. A concentration of […] PM (which quantitatively eliminates wildtype MCF7 cells) was applied to select MCF7 cells with stably integrated expression cassettes. PM-resistant colonies selected with the same procedure as described above for the DT selection and visualized and quantified (between 12 and 14 days after start of selection) in the same manner as described above for toxin resistant colonies. Number of PM resistant colonies obtained with non-target guide sequences (scrambled gRNA, FIG. 1) reflect the nonspecific integration background. […]

The test system of data set [5] is DPH2 gene. Nature of the data set: DT resistant colony count after DPH2 gene editing. The conditions noted are these: DPH2 assay (integr. vs. k.o.); for # of DT resistant colonies (40,000 seeded cells): MCF7, individual samples A-D. On the procedure: as §3, §4, §5
In data set [6] the test system is DPH1 gene. Nature of the data set: PM resistant colony count after DPH1 gene editing (PAC cassette integration). The conditions noted are these: for # of PM resistant colonies (40,000 seeded cells): MCF7, individual samples A-D. On the procedure:
as §3, §4
as §5, with “For quantification of homozygous knock-out events by DT 20000 cells were seeded and for quantification of integration events by PM or both events 40000 cells were seeded.” left out
as §6, with “background. Increase in colonies (above nonspecific background) obtained with target-gene gRNAs which are PM-resistant but toxin sensitive reflect integration into just one target allele, leaving the other dph1 or dph2 allele unaffected.” for “background.”

In data set [7] the test system is DPH1 gene. Briefly: DT + PM double resistant colony count after DPH1 gene editing (integration with inactivation). The conditions noted are these: DPH1 (gRNA length), TF eff. = 31%; for # of DT + PM resistant colonies (40,000 seeded cells): MCF7, individual samples A-D.
Experimental: MCF7 cells (Brooks, et al. 1973) were originally obtained from ATCC (subsequently propagated in an in-house cell bank) and maintained in RPMI 1641 medium supplemented with 10% FCS, 2 mM L-Glutamine and penicillin/streptomycin at 37° C. and 85% humidity. For transfection of plasmids harboring gene-editing modules, 3,000,000 cells were seeded in a 10 cm diameter culture dish and cultivated at 37° C. and humidified 5% CO2. 24 h after seeding, cells were transfected with 20 μg total DNA using JetPEI (Polyplus) according to the manufacturer's protocol but with an N/P ratio of 6:1. Transfection efficiency was determined after 24 h by flow cytometry (FACS Calibur, BD biosciences) of cells that were transfected with a modified eGFP expression plasmid (Zhang, et al. 1996).
CRISPR/Cas module for targeted integration contains a puromycin (PM) resistance gene expression cassette without promoter to avoid transient expression. Thus, detection of integration of recombinant sequences into the genome was detected by determining sensitivity of cells towards PM. A concentration of 500 ng/μL PM (which quantitatively eliminates wildtype MCF7 cells) was applied to select MCF7 cells with stably integrated expression cassettes. PM-resistant colonies selected with the same procedure as described above for the DT selection and visualized and quantified (between 12 and 14 days after start of selection) in the same manner as described above for toxin resistant colonies. Number of PM resistant colonies obtained with non-target guide sequences (scrambled gRNA, FIG. 1) reflect the nonspecific integration background. Increase in colonies (above nonspecific background) obtained with target-gene gRNAs which are PM-resistant but toxin sensitive reflect integration into just one target allele, leaving the other dph1 or dph2 allele unaffected. PM resistant colonies that are also DT resistant have the expression cassette integrated into at least target allele and the other allele either inactivated or inactivated accompanied by yet another integration event.
The subject of data set [8] is DPH1 gene. Briefly: DT resistant colony count after DPH1 gene editing (homozygous gene inactivation). The following applies: DPH1 (gRNA length), TF eff. = 31%; for # of DT resistant colonies (20,000 seeded cells): MCF7, individual samples A-D. Here is the method: as §3, §4, §5
MCF7 cells which have all chromosomal copies of DPH1 inactivated are DT resistant. Thus, occurrence and frequency of DTr colonies upon ZFN inflicted gene inactivation and/or cassette integration provides a measure for efficacy of inactivation of all gene copies. The ZFN recognition sequence ([…], cleavage site, SEQ ID NO: 10) are derived from NM_001383.3 (DPH1-wt) and were obtained from Sigma Aldrich. A PAC integration cassette for this position was obtained from OriGene. MCF7 cells were transfected as described above with (i) a GFP expression plasmid, (ii) the plasmid encoding DPH1-targeting ZFN and (iii) the DPH1-targeting PAC-integration cassette. After determination of transfection efficiency, cells were seeded in 6-well plates. For quantification of homozygous knock-out events (DTr) 20,000 cells were seeded, 40,000 cells for quantification of integration events (PMr) or double resistances. […]

Where [9] appears, read: compound added 4 hr before transfection.
Setting [10] is: compound added 4 hrs before transfection.
[11] abbreviates: compound added 18 hr after transfection.
Where [12] appears, read: listed as Dph2 CRISPR Cas9 gRNA.
[13] abbreviates: DPH1 (gRNA length), TF eff. = 31%.
Where [14] appears, read: listed as 24 mer Dph1 CRISPR Cas9 gRNA.

Where “and” joins values, the source holds several entries; their conditions need not be identical. Identical values can stand only once. Marks after values point to notes of the source that are not given here.

SCR7: the “mean DTr colonies #seeded cells: 40,000” value with MCF-7 cells [1] (SpCas9 Dph1 gRNA (20 mer), compound added 4 hrs before transfection, RS-1 8 μM, SCR7 1 μM) is recorded as 205.3; with MCF-7 cells [3] it was 488.8. Also, the “% DT resistant colonies relative to untreated control” value is 102% in the data set on MCF-7 cells [1] (setting [9]) and 95%* in the data set with MCF-7 cells [1] (setting [11]). The “gRNA specific DT-r colonies (gRNA-scRNA)” value in the data set on MCF-7 cells [1] (setting [10]) was 205.3. For the same substance, in the data set on MCF-7 cells [1] (editing entity SpCas9-scRNA, compound added 4 hrs before transfection), the “Mean DT resistant colonies (4 × 40.000 seeded cells)” value came to 0. The “effect on the growth or viability of MCF7 cells at the applied dose” value is “does not inflict growth inhibitory or toxic effects” in the data set on MCF7 and “no effect on the growth or viability” with MCF7 (listed as Scr7). For the same substance, the “mean PMr colonies #seeded cells: 80,000” value in the data set with MCF-7 cells [2] (compound added 4 hrs before transfection, RS-1 8 μM, SCR7 1 μM) turned out to be 13.3; in the data set on MCF-7 cells [2] (compound added 18 hrs after transfection, RS-1 8 μM, SCR7 1 μM) it was 25. Moreover, the “% PMr relative to DTr colonies” value with MCF-7 cells [2] (SpCas9 Dph1 gRNA, compound added 18 hrs after transfection, RS-1 8 μM, SCR7 1 μM) was 5.1%. Moreover, in the data set with MCF-7 cells [2] (compound 4 hrs before until 72 hr after transfection), the “increase of the number of PMr colonies compared to untreated control” value was “approx. 2 fold”. The “% PM resistant colonies relative to untreated control” value with MCF-7 cells [2] (setting [9]) amounted to 156%*; in the data set with MCF-7 cells [2] (setting [11]), 125%. Moreover, the “gRNA specific PM-r colonies (gRNA-scRNA)” value with MCF-7 cells [2] (setting [10]) was determined as 9.5.
“20 mer SpCas9 Dph2 gRNA: Plasmids encoding SpCas9 and Dph2 gRNA (target GATGTTTAGCAGCCCTGCCG, SEQ ID NO: 02) plus donor plasmid”: the “# of PM resistant colonies (40,000 seeded cells) (unheaded second sub-column: mean)” value in the data set on DPH2 gene [4] (MCF7) worked out at 1.5. Also, the “# of PM resistant colonies (40,000 seeded cells)” value in the data set with DPH2 gene [4] is 0 (2×) and 1 and 3; with DPH2 gene [4] (setting [12]), 0 (2×) and 1 and 3. For the same substance, the “# of DT resistant colonies (40,000 seeded cells) (unheaded second sub-column: mean)” value in the data set with DPH2 gene [5] (MCF7) amounted to 130. The “# of DT resistant colonies (40,000 seeded cells)” value with DPH2 gene [5] is 162 and 227 (2×) and 215; in the data set with DPH2 gene [5] (setting [12]), 162 and 227 (2×) and 215.
Take “24 mer SpCas9 Dph1 gRNA: Dph1 gRNA sequence variant GGAGCAGGGCGGCCGAGACGGCCC with SpCas9 (chemistry not given here)”: the “# of PM resistant colonies (40,000 seeded cells)” value with DPH1 gene [6] (setting [13]) is 13 and 12 and 11 and 15; in the data set with DPH1 gene [6] (DPH1 (gRNA length), TF eff. = 31%, listed as 24 mer Dph1 CRISPR Cas9 gRNA), 13 and 12 and 11 and 15. Moreover, in the data set on DPH1 gene [6] (setting [13]), the “# of PM resistant colonies (40,000 seeded cells) (unheaded second sub-column: mean)” value is listed as 13. Further, the “integration efficacy in dependence on gRNA length” value in the data set with DPH1 gene [6] (PMr colonies) is recorded as “Targeted integration clearly above background was observed”. The “# of DT + PM resistant colonies (40,000 seeded cells)” value was 2 and 4 and 3 (2×) in the data set on DPH1 gene [7]; 2 and 4 and 3 (2×) with DPH1 gene [7] (setting [14]). Further, the “# of DT + PM resistant colonies (40,000 seeded cells) (unheaded second sub-column: mean)” value in the data set on DPH1 gene [7] is listed as 3. For the same substance, the “# of DT resistant colonies (20,000 seeded cells)” value in the data set with DPH1 gene [8] is 237 and 252 and 228 and 211; in the data set on DPH1 gene [8] (setting [14]) it was 237 and 252 and 228 and 211. The “# of DT resistant colonies (20,000 seeded cells) (unheaded second sub-column: mean)” value with DPH1 gene [8] came to 232.
